From patent US20220288052A1, “COMPOUND FOR COMBINATION TREATMENT” (priority 2019, published 2022)
Read-outs that look alike come from different tables or passages of the source.

Legend:
[1] = test system: brain levels of dopamine (DA); test: In vivo microdialysis, DA; design: species or system rat
Experimental: The purpose of the present study was to examine, by in vivo microdialysis technique, the effects after administration of compound (I) on brain levels of serotonin, noradrenalin and dopamine within the ventral hippocampus (Hipp), prefrontal cortex (PFC), striatum (STR) and nucleus accumbens (N.Acc) of anaesthetized rats and mice. Compound (I) represents dual acting serotonin/dopamine reuptake inhibitors and was tested in comparison to citalopram a selective serotonin uptake inhibitor. Compound (I) was tested following subcutaneous injections at dose levels between 0.25-30 mg/kg. […] Pre-treatment with the 5-HT1A autoreceptor antagonist WAY-100635 induced a further minor increase of the compound (I) (0.25 mg/kg) induced increase in the PFC level of 5-HT. […]

[2] = beagle, dog, in vivo, iv
Experimental: Data presented are mean±s.e. mean where n=4 for all time points, excluding D2t7 where n=3, D3t7 where n=2, and D4t7 and D4t26 where no data was available. Animals received 1, 3, 10, and 30 mg/kg compound (I) as 4 intravenous infusions (starting at t0, D1t30, D2t30 and D3t30, respectively). Each dose was administered over 5 min, using an infusion pump, and the dose volume for each treatment was 2 ml/kg, with the exception of the fourth dose which was 3 ml/kg.
Data presented are mean±s.e. mean where n=4 for all time points, excluding D4t7 and D4t26 where no data was available. Animals received 1, 3, 10, and 30 mg/kg compound (I) as 4 intravenous infusions (starting at t0, D1t30, D2t30 and D3t30, respectively). Each dose was administered over 5 min, using an infusion pump, and the dose volume for each treatment was 2 ml/kg, with the exception of the fourth dose which was 3 ml/kg.

CYP 2C9 = CYP 2C9 (Homo sapiens, UniProt P11712); test: CYP450 inhibition, cocktail of selective substrates, 2C9; assay type: in vitro ADME; settings: CYP 2C9, Tolbutamide to 4-hydroxytolbutamide; read-out: IC50 of compound (I)
Chain of CYP 2C9 (P11712 whole entry): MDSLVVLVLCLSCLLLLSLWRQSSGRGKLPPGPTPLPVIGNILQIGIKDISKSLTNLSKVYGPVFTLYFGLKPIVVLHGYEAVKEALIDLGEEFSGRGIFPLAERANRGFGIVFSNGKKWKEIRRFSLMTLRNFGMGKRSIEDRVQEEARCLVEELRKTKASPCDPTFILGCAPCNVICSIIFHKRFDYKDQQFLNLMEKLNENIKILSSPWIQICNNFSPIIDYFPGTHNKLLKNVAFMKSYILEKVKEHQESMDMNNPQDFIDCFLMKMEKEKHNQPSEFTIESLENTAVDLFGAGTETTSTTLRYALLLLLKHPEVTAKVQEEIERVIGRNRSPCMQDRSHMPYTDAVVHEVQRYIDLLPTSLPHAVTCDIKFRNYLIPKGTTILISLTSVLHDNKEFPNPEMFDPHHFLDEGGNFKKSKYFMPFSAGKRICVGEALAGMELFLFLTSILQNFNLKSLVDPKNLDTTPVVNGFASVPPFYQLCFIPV
Experimental: (§1) Compound (I) was tested for CYP450 inhibition using a cocktail of selective substrates. […] This might be addressed later in a clinical study.

[3] = Metabolic stability in liver microsomes, monkey; assay type: in vitro ADME
Experimental: The metabolic stability of compound (I) was tested in liver microsomes from all in house available species at 1 and 5 μM. One metabolite of 16 mass units higher than parent, was found in all incubations, except with human liver microsomes.

[4] = Bioavailability study in dog; assay type: in vivo; settings: for half-life / AUC(0-inf) / Cmax / Tmax / bioavailability / Vd / clearance: plasma; for bioavailability: 2.5 mg/kg p.o. vs 0.5 mg/kg i.v.
Experimental: A bioavailability study was also conducted in dogs. […] The i.v. dose, which was given 7 days later, was chosen as 0.5 mg/kg in order to prevent observable CNS effects. The difference between the p.o. and the i.v. dose might overestimate the bioavailability to a certain extent. […] T½ is in the same range in the two dogs and after both p.o. and i.v. administration (1.4-1.7 h).

NMRI mice [5] = test: Mouse marble burying test (mMB); assay type: in vivo
Experimental: FIG. 13: Marble burying. In the marble-burying test mice exposed to a novel object (marbles) bury them in the sawdust floor covering. Compounds showing anxiolytic-like activity decrease the number of buried marbles at non-sedative doses. […] The number of marbles covered by sawdust was counted at the end of a 60-min session.
Compound (I) was tested in three widely used behavioural screens for predicting anxiolytic effects in the clinic: the mouse marble burying test (mMB), mouse zero maze (mZM) and mouse stress-induced hyperthermia test (mSIH).

CYP1A2 = CYP1A2 (Homo sapiens, UniProt P05177); test: CYP450 inhibition, cocktail of selective substrates, 1A2; assay type: in vitro ADME; settings: CYP 1A2, Phenacetin to Paracetamol; read-out: IC50 of compound (I)
Chain of CYP1A2 (P05177 whole entry): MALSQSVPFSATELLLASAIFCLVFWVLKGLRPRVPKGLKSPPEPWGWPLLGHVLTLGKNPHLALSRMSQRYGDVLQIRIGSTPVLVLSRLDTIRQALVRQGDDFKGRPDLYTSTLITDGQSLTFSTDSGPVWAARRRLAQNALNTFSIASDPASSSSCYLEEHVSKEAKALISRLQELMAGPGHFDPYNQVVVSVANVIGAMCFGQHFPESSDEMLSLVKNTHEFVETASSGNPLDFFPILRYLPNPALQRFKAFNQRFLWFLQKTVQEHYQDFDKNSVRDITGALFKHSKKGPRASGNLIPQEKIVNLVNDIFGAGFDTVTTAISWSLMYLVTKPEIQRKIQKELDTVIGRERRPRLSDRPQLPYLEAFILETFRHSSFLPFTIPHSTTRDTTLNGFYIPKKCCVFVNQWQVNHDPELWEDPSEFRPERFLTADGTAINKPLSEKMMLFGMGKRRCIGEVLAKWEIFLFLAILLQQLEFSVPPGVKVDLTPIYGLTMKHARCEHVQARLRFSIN
Experimental: as §1

NMRI mice [6] = test: Locomotor activity (mLA); assay type: in vivo, mouse
Experimental: FIG. 8: The effects of compound (I) on locomotor activity. Compound (I) p.o. in NMRI mice. TSE Motility.
(§2) Compound (I) was tested in a classical test often used to measure the ability of a compound to block the reuptake of 5-HT in vivo: nialamide-induced 5-HT syndrome (m5-HT). In addition, compound (I) was tested in a locomotor activity paradigm (mLA) as a measure of its ability to block the reuptake of DA and therefore induce motility. It is generally accepted that >60% DA transporter blockade is needed to induce increased motility in this test.

[7] = Metabolic stability in human hepatocytes; assay type: in vitro ADME; settings: 120 minutes at 10 μM
Experimental: The stability of compound (I) was tested in human hepatocytes incubating for 120 minutes at 10 μM. The compound was stable in human hepatocytes.

Nicotinic α4β2 = Nicotinic α4β2 (Rattus norvegicus, UniProt P09483+P12390); test: In-house nicotinic binding assay, Nicotinic α4β2
Chain of Nicotinic α4β2 (P09483 31-630): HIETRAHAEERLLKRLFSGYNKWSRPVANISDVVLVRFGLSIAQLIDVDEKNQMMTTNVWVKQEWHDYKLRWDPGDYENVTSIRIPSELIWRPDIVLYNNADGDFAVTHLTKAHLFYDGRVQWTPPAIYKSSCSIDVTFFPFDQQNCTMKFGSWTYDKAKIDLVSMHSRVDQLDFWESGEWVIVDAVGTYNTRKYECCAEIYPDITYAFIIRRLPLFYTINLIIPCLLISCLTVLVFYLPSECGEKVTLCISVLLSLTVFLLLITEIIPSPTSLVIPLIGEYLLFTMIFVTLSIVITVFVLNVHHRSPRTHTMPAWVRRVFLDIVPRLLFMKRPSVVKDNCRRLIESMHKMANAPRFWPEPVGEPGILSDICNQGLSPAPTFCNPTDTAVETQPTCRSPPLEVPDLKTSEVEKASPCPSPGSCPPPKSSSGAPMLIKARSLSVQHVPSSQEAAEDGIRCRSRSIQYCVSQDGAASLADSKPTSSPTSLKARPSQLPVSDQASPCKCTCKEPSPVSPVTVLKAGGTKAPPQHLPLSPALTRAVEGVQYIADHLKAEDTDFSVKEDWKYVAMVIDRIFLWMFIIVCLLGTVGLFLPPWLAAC
Chain of Nicotinic α4β2 (P12390 25-500): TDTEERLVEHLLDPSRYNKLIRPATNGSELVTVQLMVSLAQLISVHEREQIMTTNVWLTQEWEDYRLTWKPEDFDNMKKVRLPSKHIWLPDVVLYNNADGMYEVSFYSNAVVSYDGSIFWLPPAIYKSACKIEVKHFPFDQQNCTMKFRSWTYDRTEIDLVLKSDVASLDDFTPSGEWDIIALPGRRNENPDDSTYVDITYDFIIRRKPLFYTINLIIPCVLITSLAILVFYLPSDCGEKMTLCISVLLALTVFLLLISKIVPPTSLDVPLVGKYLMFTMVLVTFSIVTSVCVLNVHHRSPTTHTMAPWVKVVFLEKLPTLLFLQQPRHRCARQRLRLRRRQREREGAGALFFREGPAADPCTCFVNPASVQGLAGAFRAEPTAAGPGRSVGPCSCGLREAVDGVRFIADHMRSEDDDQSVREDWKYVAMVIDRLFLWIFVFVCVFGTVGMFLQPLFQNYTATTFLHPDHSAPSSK

[8] = test system: nialamide pre-treated mice; test: Nialamide-induced 5-HT syndrome (m5-HT); assay type: in vivo, mouse
Experimental: 50 mg/kg nialamide s.c. t=120 min. Compound (I) p.o. t=0. n=4.
as §2

[9] = 5 days p.o. tolerated dose study in female rats (non-GLP); assay type: in vivo, rat; settings: p.o. 5 days, 30, 60, 90 mg/kg
NA transporter = NA transporter (Homo sapiens, UniProt P23975); test: ^3H-uptake human, NA transporter; assay type: biochemical
Chain of NA transporter (P23975 whole entry): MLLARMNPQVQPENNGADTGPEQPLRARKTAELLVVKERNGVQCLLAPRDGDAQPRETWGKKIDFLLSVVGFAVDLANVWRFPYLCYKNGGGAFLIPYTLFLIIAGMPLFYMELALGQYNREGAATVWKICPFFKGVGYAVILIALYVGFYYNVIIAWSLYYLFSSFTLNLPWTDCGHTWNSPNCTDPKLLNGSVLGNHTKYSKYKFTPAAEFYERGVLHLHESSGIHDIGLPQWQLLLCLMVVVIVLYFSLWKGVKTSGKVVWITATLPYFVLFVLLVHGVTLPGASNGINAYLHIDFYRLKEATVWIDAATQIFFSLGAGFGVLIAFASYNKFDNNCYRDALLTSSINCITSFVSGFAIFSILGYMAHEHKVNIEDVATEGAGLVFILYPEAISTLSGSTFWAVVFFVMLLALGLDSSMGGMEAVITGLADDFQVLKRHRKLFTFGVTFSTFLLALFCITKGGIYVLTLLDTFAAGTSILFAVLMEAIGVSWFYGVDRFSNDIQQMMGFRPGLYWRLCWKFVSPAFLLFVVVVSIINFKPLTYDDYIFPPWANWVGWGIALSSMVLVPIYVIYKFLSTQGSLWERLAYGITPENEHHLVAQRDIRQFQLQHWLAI
Source text: Compound (I) has been characterized as a monoamine reuptake inhibitor, based on the profile in a series of functional assays (Table 2).

[10] = po, Female beagle dog, 2.5 mg/kg p.o.
[11] = po, Male beagle dog, 2.5 mg/kg p.o.

O=c1ccc2ccc(O[C@@H]3C[C@H]4CC[C@@H](C3)N4)cc2o1 [Compound (I), exo-7-(8-aza-bicyclo[3.2.1]oct-3-yloxy)-chromen-2-one]
DA (AUC0-160 min) ([1]; Hippocampus, 3 mg/kg s.c., 3 mg/kg): 142±36% | DA (AUC0-160 min) ([1]; N.Acc, 10 mg/kg s.c., 10 mg/kg): 192±42% | DA (AUC0-160 min) ([1]; N.Acc, 30 mg/kg s.c., 30 mg/kg): 604±88% | DA (AUC0-160 min) ([1]; Pre-frontal cortex, 1 mg/kg s.c., 1 mg/kg): 132±9% | DA (AUC0-160 min) ([1]; Pre-frontal cortex, 10 mg/kg s.c., 10 mg/kg): 211±40% | DA (AUC0-160 min) ([1]; Pre-frontal cortex, WAY100365 0.1 mg/kg + compound (I) 0.25 mg/kg): 55 ± 2% | DA (AUC0-160 min) ([1]; Striatum, 3 mg/kg s.c., 3 mg/kg): 137±21% | DA (AUC0-160 min) ([1]; Striatum, 10 mg/kg s.c., 10 mg/kg): 134±43% | Kinetic pattern of DA increase in microdialysis (nucleus accumbens) ([1]; rats, 30 mg/kg s.c., compared to bupropion 10 mg/kg s.c. and cocaine 25 mg/kg i.p.): slower kinetic pattern | Average conc. of compound (I) at 5 min (max), total plasma ([2]; 1 mg/kg): 631 ng/mL | Average conc. of compound (I) at 5 min (max), total plasma ([2]; 3 mg/kg): 2120 ng/mL | Average conc. of compound (I) at 5 min (max), total plasma ([2]; 10 mg/kg): 6560 ng/mL | Average conc. of compound (I) at 5 min (max), total plasma ([2]; 30 mg/kg): 15000 ng/mL | IC50 (CYP 2C9): > 100 µM | Stability at 1 μM [3]: 79% | Stability at 5 μM [3]: 88% | half-life ([4]; both sexes, beagle, dog, other: p.o. and i.v., the two dogs, after both p.o. and i.v. administration, read-out: T½): 1.4 to 1.7 h | CNS effects ([4]; dogs, after 2.5 mg/kg p.o.): some CNS effects were observed | AUC(0-inf) ([4]; iv, Female beagle dog, 0.5 mg/kg i.v., read-out: AUC(0-∞) i.v.): 194 ng·h/mL | half-life ([4]; iv, Female beagle dog, 0.5 mg/kg i.v., read-out: T½ i.v. (converted)): 1.4 h | AUC(0-inf) ([4]; iv, Male beagle dog, 0.5 mg/kg i.v., read-out: AUC(0-∞) i.v.): 343 ng·h/mL | half-life ([4]; iv, Male beagle dog, 0.5 mg/kg i.v., read-out: T½ i.v. (converted)): 1.6 h | Cmax [4, 10]: 339 ng/mL | Tmax [4, 10]: 0.5 h | bioavailability ([4]; po, Female beagle dog): 114% | AUC(0-inf) ([4]; po, Female beagle dog, 2.5 mg/kg p.o., read-out: AUC(0-∞) p.o.): 1110 ng·h/mL | half-life ([4]; po, Female beagle dog, 2.5 mg/kg p.o., read-out: T½ p.o. (converted)): 1.6 h | Cmax [4, 11]: 418 ng/mL | Tmax [4, 11]: 0.5 h | bioavailability ([4]; po, Male beagle dog): 84% | AUC(0-inf) ([4]; po, Male beagle dog, 2.5 mg/kg p.o., read-out: AUC(0-∞) p.o.): 1440 ng·h/mL | half-life ([4]; po, Male beagle dog, 2.5 mg/kg p.o., read-out: T½ p.o. (converted)): 1.7 h | Vd ([4]; Female beagle dog): 5 L/kg | clearance ([4]; Female beagle dog): 43.3 mL/min/kg | Vd ([4]; Male beagle dog): 3.4 L/kg | clearance ([4]; Male beagle dog): 25 mL/min/kg | MED (NMRI mice [5]; Marble burying, p.o., −60 min): 0.1 mg/kg | Number of visible marbles (NMRI mice [5]; per oral, NMRI mice, 60-min session): dose-dependently (0.1-1.0 mg/kg) increases in the number of visible marbles | IC50 (CYP1A2): 3.5 µM | MED (NMRI mice [6]; mLA, 1, 3, 10 mg/kg p.o. −60 min + SCH23390 0.00375 mg/kg s.c. −60 min): 10 mg/kg | MED (NMRI mice [6]; mLA, p.o. 0 min): 10 mg/kg | Stability in human hepatocytes [7]: stable | IC50 (Nicotinic α4β2): 31 µM | MED ([8]; m5-HT, p.o. 0 min): 0.1 mg/kg | Potency in 5-HT syndrome relative to the reference compounds tested ([8]; nialamide pre-treated mice): 100 times | Activity [9]: increased activity | Body weight gain [9]: no changes in body weight gain | IC50 (NA transporter): 0.046 µM | Ki (NA transporter): 0.0501 µM | Human transporter ratio (NA transporter; NA versus 5-HT): 26
